Assays:
[1] = test system: KRas G12D-mediated Phosphorylation of ERK; assay: Inhibition of KRas G12D-mediated Phosphorylation of ERK in AGS cells; type: cell-based; conditions: Homo sapiens; AGS cells expressing G12D, 3 hours, phospho-ERK normalized to GAPDH
Description: AGS cells (ATCC CRL-1739) expressing G12D were grown in DMEM medium supplemented with 10% fetal bovine serum, 10 mM HEPES, and Penicillin/Streptomycin. Cells were plated in tissue culture treated 96 well plates at a density of 40,000 cells/well and allowed to attach for 12-14 hours. Diluted compounds were then added in a final concentration of 0.5% DMSO. After 3 hours, the medium was removed, 150 μl of 4.0% formaldehyde was added and the plates incubated at room temperature for 20 minutes. The plates were washed with PBS, and permeabilized with 150 μL of ice cold 100% methanol for 10 minutes. Non-specific antibody binding to the plates was blocked using 100 μL Licor blocking buffer (Li-Cor Biotechnology, Lincoln NE) for 1 hour at room temperature.
The amount of phospho-ERK was determined using an antibody specific for the phosphorylated form of ERK and compared to the amount of GAPDH. Primary antibodies used for the detection were added as follows: Phospho-ERK(Cell Signaling cs-9101) diluted 1:500 and GAPDH(Millipore MAB374) diluted 1:5000 in Licor block+0.05% Tween 20. The plates were incubated for 2 hours at room temperature. The plates were washed with PBS+0.05% Tween 20.
Secondary antibodies used to visualize primary antibodies were added as follows: Anti-rabbit-680 diluted 1:1000 and Anti-mouse-800 diluted 1:1000 both in Licor block+0.05% Tween20, and were incubated for 1 hour at room temperature. The plates were washed with PBS+0.05% Tween 20. A 100 μl aliquot of PBS was added to each well and the plates were read on a Li-Cor Odyssey CLX plate reader.
The phospho-ERK(Thr202/Tyr204 signal was normalized to the GAPDH signal for each well and percent of DMSO control values were calculated. IC50 values were generated using a 4-parameter fit of the dose response curve.

[2] = target: KRas G12D (Homo sapiens, UniProt P01116, G12D); assay: KRas G12D Binding Assay (TR-FRET displacement of labeled tracer); design: corresponding to amino acids 1:169, produced at Array BioPharma; biotin (protein is biotinylated); conditions: TR-FRET displacement of Cy5 labelled tracer, biotinylated GDP-loaded KRAS G12D (aa 1:169), 60 minute incubation at 22° C.
Description: This Example illustrates that exemplary compounds of the present invention bind to KRas G12D and are capable of displacing a labeled tracer ligand occupying the KRas G12D binding site.
The ability of a compound to bind to KRAS G12D was measured using a TR-FRET displacement assay. Biotinylated GDP-loaded recombinant human KRAS G12D (corresponding to amino acids 1:169, produced at Array BioPharma) was incubated with a custom-made Cy5 labelled tracer, europium labelled streptavidin and compound (2% DMSO final) in buffer (50 mM HEPES [pH 7.5], 5 mM MgCl2, 0.005% Tween-20 & 1 mM DTT). After a 60 minute incubation at 22° C., the reaction was measured using a PerkinElmer EnVision multimode plate reader via TR-FRET dual wavelength detection, and the percent of control (POC) calculated using a ratiometric emission factor. […] The POC values were fit to a 4-parameter logistic curve and the IC50 value was determined as the concentration where the curve crosses 50 POC.

KRas G12D, sequence (P01116 1-169 isoform P01116-2 G12D): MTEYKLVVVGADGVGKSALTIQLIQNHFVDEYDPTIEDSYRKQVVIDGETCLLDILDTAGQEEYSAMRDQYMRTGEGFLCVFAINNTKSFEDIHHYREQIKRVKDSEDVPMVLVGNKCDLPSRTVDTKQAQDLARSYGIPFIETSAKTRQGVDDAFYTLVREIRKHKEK

SMILES | IC50 [1] | IC50 [2]
CCc1cccc2cc(O)cc(N3CCc4c(nc(OCC56CCCN5C(CF)CC6)nc4N4CC5CCC(C4)N5)C3)c12 (mixture of isomers) [Example 23, 4-(4-((1R,5S)-3,8-diazabicyclo[3.2.1]octan-3-yl)-2-((3-(fluoromethyl)tetrahydro-1H-pyrrolizin-7a(5H)-yl)methoxy)-5,8-dihydropyrido[3,4-d]pyrimidin-7(6H)-yl)-5-ethylnaphthalen-2-ol (mixture or isomers)] | 119 nM | 1.1 nM
CCc1cccc2cc(O)cc(N3CCc4c(nc(OCC56CCCN5C[C@H](F)C6)nc4N4CC5CCC(C4)N5)C3)c12 (mixture of isomers) [Example 6, 4-(4-((1R,5S)-3,8-diazabicyclo[3.2.1]octan-3-yl)-2-((2-fluorotetrahydro-1H-pyrrolizin-7a(5H)-yl)methoxy)-5,8-dihydropyrido[3,4-d]pyrimidin-7(6H)-yl)-5-ethylnaphthalen-2-ol (racemic, trans)] | 12 nM | 0.8 nM
CCc1cccc2cccc(N3CCc4c(nc(OCC56CCCN5CC(F)C6)nc4N4C[C@H]5CC[C@@H](C4)N5)C3)c12 (mixture of isomers) [Example 9, 4-((1R,5S)-3,8-diazabicyclo[3.2.1]octan-3-yl)-7-(8-ethylnaphthalen-1-yl)-2-((2-fluorotetrahydro-1H-pyrrolizin-7a(5H)-yl)methoxy)-5,6,7,8-tetrahydropyrido[3,4-d]pyrimidine (racemic, trans)] | 1660 nM | 3.1 nM
F[C@H]1CN2CCCC2(COc2nc3c(c(N4CC5CCC(C4)N5)n2)CCN(c2cccc4cccc(C5CC5)c24)C3)C1 (mixture of isomers) [Example 11] | > 16700 nM | 19.8 nM
F[C@H]1CN2CCCC2(COc2nc3c(c(N4CC5CCC(C4)N5)n2)CCN(c2cccc(Cl)c2C2CC2)C3)C1 (mixture of isomers) [Example 17, 4-((1R,5S)-3,8-diazabicyclo[3.2.1]octan-3-yl)-7-(3-chloro-2-cyclopropylphenyl)-2-((2-fluorotetrahydro-1H-pyrrolizin-7a(5H)-yl)methoxy)-5,6,7,8-tetrahydropyrido[3,4-d]pyrimidine (racemic, trans)] | > 16700 nM | 29.5 nM
CCc1c(F)ccc2cccc(N3CCc4c(nc(OCC56CCCN5C[C@H](F)C6)nc4N4CC5CCC(C4)N5)C3)c12 (mixture of isomers) [Example 20, 4-((1R,5S)-3,8-diazabicyclo[3.2.1]octan-3-yl)-7-(8-ethyl-7-fluoronaphthalen-1-yl)-2-((2-fluorotetrahydro-1H-pyrrolizin-7a(5H)-yl)methoxy)-5,6,7,8-tetrahydropyrido[3,4-d]pyrimidine (racemic, trans)] | 539 nM | 2.8 nM
F[C@H]1CN2CCCC2(COc2nc3c(c(N4CC5CCC(C4)N5)n2)CCN(c2cccc4cccc(Cl)c24)C3)C1 (mixture of isomers) [Example 46, 4-((1R,5S)-3,8-diazabicyclo[3.2.1]octan-3-yl)-7-(8-chloronaphthalen-1-yl)-2-((2-fluorotetrahydro-1H-pyrrolizin-7a(5H)-yl)methoxy)-5,6,7,8-tetrahydropyrido[3,4-d]pyrimidine] | 4570 nM | 4.4 nM
Oc1cc(N2CCc3c(nc(OCC45CCCN4C[C@H](F)C5)nc3N3CC4CCC(C3)N4)C2)c2ccccc2c1 (mixture of isomers) [Example 47, 4-(4-((1R,5S)-3,8-diazabicyclo[3.2.1]octan-3-yl)-2-((2-fluorotetrahydro-1H-pyrrolizin-7a(5H)-yl)methoxy)-5,8-dihydropyrido[3,4-d]pyrimidin-7(6H)-yl)naphthalen-2-ol] | 537 nM | 1 nM
F[C@H]1CN2CCCC2(COc2nc3c(c(N4CC5CCC(C4)N5)n2)CCN(c2cccc(Cl)c2C(F)(F)F)C3)C1 (mixture of isomers) [Example 48, 4-((1R,5S)-3,8-diazabicyclo[3.2.1]octan-3-yl)-7-(3-chloro-2-(trifluoromethyl)phenyl)-2-((2-fluorotetrahydro-1H-pyrrolizin-7a(5H)-yl)methoxy)-5,6,7,8-tetrahydropyrido[3,4-d]pyrimidine] | 5220 nM | 5.5 nM
Oc1cc(N2CCc3c(nc(OCC45CCCN4C[C@H](F)C5)nc3N3CC4CCC(C3)N4)C2)c2c(Cl)cccc2c1 (mixture of isomers) [Example 49, 4-(4-((1R,5S)-3,8-diazabicyclo[3.2.1]octan-3-yl)-2-((2-fluorotetrahydro-1H-pyrrolizin-7a(5H)-yl)methoxy)-5,8-dihydropyrido[3,4-d]pyrimidin-7(6H)-yl)-5-chloronaphthalen-2-ol] | 77 nM | 0.5 nM
Cc1cccc2cccc(N3CCc4c(nc(OCC56CCCN5C[C@H](F)C6)nc4N4CC5CCC(C4)N5)C3)c12 (mixture of isomers) [Example 50, 4-((1R,5S)-3,8-diazabicyclo[3.2.1]octan-3-yl)-2-((2-fluorotetrahydro-1H-pyrrolizin-7a(5H)-yl)methoxy)-7-(8-methylnaphthalen-1-yl)-5,6,7,8-tetrahydropyrido[3,4-d]pyrimidine] | > 16700 nM | 7.1 nM
F[C@H]1CN2CCCC2(COc2nc3c(c(N4CC5CCC(C4)N5)n2)CCN(c2cccc4cccc(C(F)(F)F)c24)C3)C1 (mixture of isomers) [Example 51, 4-((1R,5S)-3,8-diazabicyclo[3.2.1]octan-3-yl)-2-((2-fluorotetrahydro-1H-pyrrolizin-7a(5H)-yl)methoxy)-7-(8-(trifluoromethyl)naphthalen-1-yl)-5,6,7,8-tetrahydropyrido[3,4-d]pyrimidine] | > 16700 nM | 16.9 nM
CCc1cccc2cccc(N3CCc4c(nc(OCC56CCCN5C(COC(=O)N(CC)CC)CC6)nc4N4C[C@H]5CC[C@@H](C4)N5)C3)c12 (mixture of isomers) [Example 66, (7a-(((4-((1R,5S)-3,8-diazabicyclo[3.2.1]octan-3-yl)-7-(8-ethylnaphthalen-1-yl)-5,6,7,8-tetrahydropyrido[3,4-d]pyrimidin-2-yl)oxy)methyl)hexahydro-1H-pyrrolizin-3-yl)methyl diethylcarbamate] | 2210 nM | 4.6 nM
CCc1cccc2cccc(N3CCc4c(nc(OCC56CCCN5C(COC(=O)N5CCS(=O)(=O)CC5)CC6)nc4N4C[C@H]5CC[C@@H](C4)N5)C3)c12 (mixture of isomers) [Example 67, (7a-(((4-((1R,5S)-3,8-diazabicyclo[3.2.1]octan-3-yl)-7-(8-ethylnaphthalen-1-yl)-5,6,7,8-tetrahydropyrido[3,4-d]pyrimidin-2-yl)oxy)methyl)hexahydro-1H-pyrrolizin-3-yl)methyl thiomorpholine-4-carboxylate 1,1-dioxide] | 150 nM | 1.5 nM
CCc1cccc2cccc(N3CCc4c(nc(OCC56CCCN5C(COC(=O)N(C)OC)CC6)nc4N4C[C@H]5CC[C@@H](C4)N5)C3)c12 (mixture of isomers) [Example 68, (7a-(((4-((1R,5S)-3,8-diazabicyclo[3.2.1]octan-3-yl)-7-(8-ethylnaphthalen-1-yl)-5,6,7,8-tetrahydropyrido[3,4-d]pyrimidin-2-yl)oxy)methyl)hexahydro-1H-pyrrolizin-3-yl)methyl methoxy(methyl)carbamate] | 1330 nM | 5.9 nM
CNC(=O)OCC1CCC2(COc3nc4c(c(N5C[C@H]6CC[C@@H](C5)N6)n3)CCN(c3cccc5cccc(Cl)c35)C4)CCCN12 (mixture of isomers) [Example 100, (7a-(((4-((1R,5S)-3,8-diazabicyclo[3.2.1]octan-3-yl)-7-(8-chloronaphthalen-1-yl)-5,6,7,8-tetrahydropyrido[3,4-d]pyrimidin-2-yl)oxy)methyl)hexahydro-1H-pyrrolizin-3-yl)methyl methylcarbamate] | 1310 nM | 9.7 nM
CCc1cccc2cccc(N3CCc4c(nc(OCC56CCCN5C(CO)CC6)nc4N4C[C@H]5CC[C@@H](C4)N5)C3)c12 (mixture of isomers) [Example 103, (7a-(((4-((1R,5S)-3,8-diazabicyclo[3.2.1]octan-3-yl)-7-(8-ethylnaphthalen-1-yl)-5,6,7,8-tetrahydropyrido[3,4-d]pyrimidin-2-yl)oxy)methyl)hexahydro-1H-pyrrolizin-3-yl)methanol] | 6220 nM | 3.9 nM
